Series [1] has as its target T1, accumulated Aβ40 (Homo sapiens, UniProt P05067).
T1 construct: beta-amyloids 40 and 42 consisting of 40 and 42 amino acids
In words: Beta-amyloid fibril disaggregation activity by SDS-PAGE, Aβ40. The following applies: Aβ40 50 μM, compound 20 mM, 3rd and 7th day, photo-induced cross-linking, silver staining. It is filed as biochemical. As for the experimental part: (§1) In order to measure the accumulated beta-amyloid disaggregation activity of a compound according to the present invention, the following experiment was performed using SDS-PAGE.
(§2) When peptides or proteins are subjected to electrophoresis on an SDS gel, the secondary structures of the proteins are broken. Thus, it is necessary to cross-link the proteins and immobilize their structures. It is achieved by a photo-induced cross-linking such that the structure of accumulated beta-amyloid may not be dismissed during electrophoresis on SDS gel. Specifically, a beta-amyloid stock solution was prepared in a DMSO solution such that Aβ40 or Aβ42 may have a concentration of 5 mM or 2.5 mM, and was […] by 10 times using distilled water to prepare Aβ40 and Aβ42 at a concentration of 500 μM and 250 μM, respectively. It was cultured at 37° C. for 7 to 10 days to prepare a sufficient amount of beta-amyloid aggregate. Subsequently, compounds of chemical formula 1a to 1e according to the present invention or distilled water were again added into each accumulated beta-amyloid to obtain 10-times diluted solutions, and then they were cultured at 37° C. for 7 days. Distilled water was used as a control group. The final concentration of the compound was 20 mM, and the final concentrations of beta-amyloid Aβ40 or Aβ42 were 50 μM and 25 μM, respectively. […]

For series [2], the target named is T2, Aβ40 fibril (Homo sapiens, UniProt P05067).
T2 construct: beta-amyloids 40 and 42 consisting of 40 and 42 amino acids
The experiment in a line: Accumulated beta-amyloid disaggregation activity by thioflavin T (ThT) fluorescence intensity, Aβ40. The following applies: Aβ40 50 μM, compound 20 mM. It is filed as biochemical. The protocol: (§3) In order to measure the disaggregation activity of the beta-amyloid aggregate of a compound according to the present invention, the following experiment was performed using thioflavin T (ThT) fluorescence intensity.
(§4) Thioflavin T (ThT) is well mixed with fibril which is a beta-amyloid aggregate in a solution and tends to increase the fluorescence intensity as the concentration of fibril increases.
(§5) For aggregation of beta-amyloid, a beta-amyloid stock solution was prepared. The beta-amyloid stock solutions were prepared in a DMSO solution such that Aβ40 or Aβ42 might have a concentration of 5 mM and 2.5 mM, respectively, and diluted in distilled water by 10 times to prepare Aβ40 and Aβ42 at a final concentration of 500 μM and 250 μM, respectively. It was cultured at 37° C. for 7 to 10 days to prepare a sufficient amount of beta-amyloid aggregate. Subsequently, compounds of chemical formula 1a to 1e according to the present invention or distilled water were again added into each accumulated beta-amyloid to obtain 10-times diluted solutions, and then they were cultured at 37° C. for 7 days. Distilled water was used as a control group. The final concentration of the compound was 20 mM, and the final concentrations of beta-amyloid Aβ40 or Aβ42 were 50 μM and 25 μM, respectively. After distilled water or the compound was added, 25 μl of each reaction solution on 0th, 3rd, and 7th day was aliquoted into each well, into which was added 75 μl of thioflavin T (ThT) to have thioflavin T (ThT) at a concentration of 5 μM. It was cultured for additional 15 minutes, and then the fluorescence intensity of a half well 96 fluorescence microplate was measured by Envision 2103 multilabel reader, Perkin-Elmer. During the measurement of fluorescence intensity, the wavelengths of excitation and emission were 450 nm and 485 nm, respectively and the counting time was 0.5 sec. […]

Series [3] concerns the target T3, accumulated Aβ42 (Homo sapiens, UniProt P05067).
T3 construct: beta-amyloids 40 and 42 consisting of 40 and 42 amino acids
The experiment in a line: Beta-amyloid fibril disaggregation activity by SDS-PAGE, Aβ42. Type of series: biochemical. The following applies: Aβ42 25 μM, compound 20 mM, 3rd and 7th day, photo-induced cross-linking, silver staining. As for the experimental part:
as §1, §2

Series [4] concerns HT-22 cells treated with Aβ40. In words: Cell viability (MTT) on beta-amyloid toxicity, Aβ40. It is filed as cell-based, rat. The following applies: HT-22, Aβ40 2 μM pre-treated with compound, 24 hours, untreated cells = 100%, FIG. 8 (a). The protocol: (§6) In order to determine the cell survival rate of a compound according to the present invention on beta-amyloid toxicity, the following example was performed.
(§7) In order to obtain beta-amyloid aggregates, a beta-amyloid stock solution was prepared. The beta-amyloid stock solutions were prepared in a DMSO solution such that Aβ40 or Aβ42 might have a concentration of 5 mM and 2.5 mM, respectively, and diluted in distilled water by 10 times to prepare Aβ40 and Aβ42 at a final concentration of 500 μM and 250 μM, respectively. Distilled water added to each solution to culture a 10 times diluted beta-amyloid at 37° C. for 7 to 10 days. Subsequently, compounds of chemical formula 1a to 1e according to the present invention or distilled water were again added into each beta-amyloid to obtain 10-times diluted solutions, and then it was cultured at 37° C. for 7 days. Distilled water was used as a control group instead of the compound. […] The cytotoxicity of the reaction solutions on 0th, 3rd, and 7th days after addition of distilled water or the compound was measured using the following cell line.
(§8) HT-22, a neuronal cell line of a rat, was cultured in DMEM (Dulbecco's Modified Eagle's Medium) supplemented with 10% FBS (Fetal Bovine Serum) and 1% penicillin/streptomycin in an incubator of 37° C. and 5% CO2. […] 18 hours later, the optical absorption was determined at 570 nm by a microplate reader. […]

The target of series [5] is T4, beta-amyloid 42 aggregate (Homo sapiens, UniProt P05067).
T4 construct: beta-amyloids 40 and 42 consisting of 40 and 42 amino acids
In words: Beta-amyloid fibril disaggregation activity by electronic microscope, Aβ42. Type of series: biochemical. As to conditions: Aβ42 25 μM, compound 20 mM, 3rd and 7th days, FIG. 7. As for the experimental part:
(§9) In order to measure accumulated beta-amyloid disaggregation activity of a compound according to the present invention, the following experiment was performed using electronic microscope.
(§10) A beta-amyloid stock solution was prepared such that Aβ40 or Aβ42 might have a concentration of 5 mM and 2.5 mM, respectively, and diluted in distilled water by 10 times to prepare Aβ40 and Aβ42 at a final concentration of 500 μM and 250 μM, respectively. It was cultured at 37° C. for 7 to 10 days to prepare a sufficient amount of beta-amyloid aggregate. Subsequently, compounds of chemical formula 1a to 1e according to the present invention or distilled water were again added into each accumulated beta-amyloid to obtain 10-times diluted solutions, and then it was cultured at 37° C. for 7 days. Distilled water was used as a control group. The final concentration of the compound was 20 mM, and the final concentrations of beta-amyloid Aβ40 or Aβ42 were 50 μM and 25 μM, respectively. Subsequently, a compound of chemical formula 1a was added, and then the mixture was cultured at 37° C. for 7 days. From each of the reaction solutions on 0th, 3rd, and 7th days after addition of distilled water or the compound, the accumulations and disaggregation degrees of accumulated beta-amyloid were observed using analytical transmission electron microscope. […]

Series [6] has as its target T5, beta-amyloid 40 aggregate (Homo sapiens, UniProt P05067).
T5 construct: beta-amyloids 40 and 42 consisting of 40 and 42 amino acids
The experiment in a line: Beta-amyloid fibril disaggregation activity by electronic microscope, Aβ40. It is filed as biochemical. The following applies: Aβ40 50 μM, compound 20 mM, 3rd and 7th days, FIG. 6. As for the experimental part:
as §9, §10

For series [7], the system named is HT-22 cells. The experiment in a line: Cytotoxicity of the compound alone (MTT). Type of series: cell-based, rat. The following applies: HT-22, without any treatment of beta-amyloid, untreated cells = 100%.
Series [8] relates to HT-22 cells treated with Aβ42. The experiment in a line: Cell viability (MTT) on beta-amyloid toxicity, Aβ42. Type of series: cell-based, rat. As to conditions: HT-22, Aβ42 1 μM pre-treated with compound, 24 hours, untreated cells = 100%, FIG. 8 (b). The protocol:
as §6, §7, §8

Series [9] addresses T6, Aβ42 fibril (Homo sapiens, UniProt P05067).
T6 construct: beta-amyloids 40 and 42 consisting of 40 and 42 amino acids
The experiment in a line: Accumulated beta-amyloid disaggregation activity by thioflavin T (ThT) fluorescence intensity, Aβ42. It is filed as biochemical. As to conditions: Aβ42 25 μM, compound 20 mM. As for the experimental part:
as §3, §4, §5

The target in series [10] is T7, Aβ40 (Homo sapiens, UniProt P05067).
T7 construct: beta-amyloids 40 and 42 consisting of 40 and 42 amino acids
In words: Beta-amyloid accumulation inhibitory activity by thioflavin T (ThT) fluorescence intensity. Type of series: biochemical. The following applies: Aβ40 50 μM, compound 20 mM (test compound: chemical formula 1a), 37° C., 0th to 7th day, FIG. 1. The protocol:
In order to measure the beta-amyloid accumulation inhibitory activity of a compound according to the present invention, the following experiment was performed using thioflavin T (ThT) fluorescence intensity.
Thioflavin T (ThT) is well mixed with fibril which is a beta-amyloid aggregate in a solution and tends to increase the shifted fluorescence intensity as the concentration of fibril increases.
A solution was prepared in a DMSO solution such that Aβ40 might have a concentration of 5 mM, and diluted in a compound of chemical formula 1a by 100 times to prepare Aβ40 at a final concentration of 50 μM. The concentration of the compound was 20 mM. Tramiprosate was used as a control group. Tramiprosate is a compound known to treat Alzheimer's disease and related diseases by inhibiting the accumulation of beta-amyloid (F. Gervais, J. et al. (2007)). Subsequently, it was cultured at 37° C. for 7 days. […] It was cultured for additional 15 minutes, and then the fluorescence intensity of a half well 96 fluorescence microplate was measured by Envision 2103 multilabel reader, Perkin-Elmer. During the measurement of fluorescence intensity, the wavelengths of excitation and emission were 450 nm and 485 nm, respectively and the counting time was 0.5 sec.

T6 sequence (P05067 672-713 limits assumed): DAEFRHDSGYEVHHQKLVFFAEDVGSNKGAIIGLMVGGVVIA
T2 sequence (P05067 672-711 limits assumed): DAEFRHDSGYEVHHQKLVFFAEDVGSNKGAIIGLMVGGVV
T3 sequence (P05067 672-713 limits assumed): as the sequence (P05067 672-713 limits assumed) above
T4 sequence (P05067 672-713 limits assumed): as above
T5 sequence (P05067 672-711 limits assumed): as the sequence (P05067 672-711 limits assumed) above
T7 sequence (P05067 672-711 limits assumed): as above
T1 sequence (P05067 672-711 limits assumed): as above

The term cell viability denotes the share of living cells, or the viability signal relative to a control. With `O=S(=O)(O)CCCN1CCN(CCO)CC1` [chemical formula 1a], the “disaggregation of accumulated beta-amyloid into monomers (SDS-PAGE band near 3.5 kD)” value in series [1] and in series [3] was “disaggregated into monomers” throughout. Besides, the “course of ThT fluorescence intensity over time” value in series [2] (0th, 3rd, 7th day, FIG. 2 (a)) is recorded as “increased over time”; in [9] (0th, 3rd, 7th day, FIG. 2 (b)) it was “increased over time”. The cell viability in [4] and in [8] was no less than 95% in each case. Further, the “beta-amyloid fibrils in transmission electron microscope images” value in series [5] is “no beta-amyloid fibrils appeared on 3rd and 7th days”; in [6], “no beta-amyloid fibrils appeared on 3rd and 7th days”. Besides, in [7], the “cell viability, compound only” value is reported as no less than 95%.

For `NCCCS(=O)(=O)O` [tramiprosate, Tramiprosate], the “increase of ThT fluorescence intensity” value in series [10] was “about 3.5 times”.

Turning to `O=S(=O)(O)CC(O)CN1CCN(CCO)CC1` (centres unmarked) [chemical formula 2, HEPPSO], the “disaggregation activity to the beta-amyloid aggregate (ThT)” value in [2] and in series [9] was “does not exhibit any disaggregation activity” throughout. In addition, the “ThT fluorescence intensity compared to initially prepared aggregates (prefibrils)” value was “increased” in series [2] (37° C., up to 7 days) and “increased” in [9] (37° C., up to 7 days).
